Experimental findings from patent US4152436A, “Acylated pentadienone hydrazone, method for preparing the same, and use as fire ant control agents” (American Cyanamid Company, priority 1978, dated 1979) are described below.

Data set [1] is described as follows: Solubility in soybean oil. The data set is classed as physicochemical. The text has this: Determination of the Solubility of the Compounds of the Invention in Soybean Oil
The sample of the compound is then reweighed, the difference between the initial and final weights corresponding to the weight of the compound in solution.

The test system of data set [2] is Southern Armyworm [Spodoptera eridania (Cramer)]. Put plainly: whole plant or invertebrate. It is filed as in vivo. To be noted: for mortality at 10 ppm / mortality at 100 ppm / mortality at 1000 ppm: 48 h, read-out: % kill, Southern Armyworm 3rd Instar; for pest or weed control at 1000 µg/mL: 168 h, second leaf, 7 days from original treatment, read-out: % kill, Southern Armyworm 3rd Instar, 7 days (residual activity). The protocol:
Southern Armyworm [Spodoptera eridania ([…] bean plant with just the primary leaves expanded to 7.6 to 10 cm is dipped for 3 seconds with agitation in a 1000 ppm solution and set in a hood to dry. […] The dish is covered and held at 26.7° C. After 2 days mortality counts and estimates of the amount of feeding are made. Compounds showing partial kill and/or inhibition of feeding are held for an extra day for further observations. All compounds showing activity as defined above are retested, using the second leaf on the bean plant, after an interval of 7 days from original treatment, as an assay of residual activity. Compounds rated active (8 or 9) are further tested at reduced concentrations in 50% acetone:50% water.

In data set [3] the test system is Cabbage Looper [Trichoplusia ni (Hubner)]. Put plainly: Insecticide test, cabbage looper 3rd instar. It is filed as in vivo. The settings on record: 48 h, 2 days, 26.7° C., read-out: % kill, Cabbage Looper 3rd Instar. The protocol:
Cabbage Looper [Trichoplusia ni (Hubner)]
A primary leaf of a cotton plant is dipped in the test solution and agitated for 3 seconds. It is then set in a hood to dry. Following this, the leaf is placed in a 10 cm petri dish containing a moist filter paper at the bottom and 10 third-instar loopers. The dish is covered and held at 26.7° C. After 2 days, mortality counts and estimates of feeding damage are recorded. Those materials showing partial kill and/or inhibition of feeding are held for another day for further observations.
(§1) Compounds rated active (8 or 9) are further tested at reduced concentrations in 50% acetone:50% water.

Data set [4] deals with Tobacco Budworm [Heliothis virescens (Fabricius)]. Put plainly: whole plant or invertebrate. To be noted: 72 h, read-out: % kill, Tobacco Budworm 3rd Instar. It is filed as in vivo. The protocol: Third Instar Three cotton plants with just expanded cotyledons are dipped in a 1000 ppm solution, and placed in a hood to dry. When dry, each cotyledon is cut in half and each half is placed in one of ten 29.6 ml plastic medicine cups containing a 1.25 cm dental wick saturated with water, and one third instar budworm larva is added. The cup is capped and held for 3 days at 26.7° C., after which mortality counts are made. Compounds rated active (8 or 9) are further tested at reduced concentrations in 50% acetone:50% water.

For data set [5] the test system is unchanged. In words: Insecticide test, tobacco budworm 1st instar (eggs / newly hatched larvae on dipped cotton leaf). To be noted: 72 h, read-out: % kill, Tobacco Budworm 1st Instar. It is filed as in vivo. The protocol: Tobacco Budworm [Heliothis virescens (Fabricius)]
A cotton plant with 2 true leaves expanded is dipped for 3 seconds with agitation in a 300 ppm solution. A 1.25 to 2 cm square of cheesecloth with about 50 to 100 budworm eggs 0-24 hours old is also dipped in the test solution and placed on one leaf to dry. The leaf with the treated budworm eggs is removed from the plant and placed in a 236.6 ml (8-oz) Dixie cup with a wet 5 cm piece of dental wick and covered with a lid. The other leaf is placed in a similar cup with a wick and a piece of cheesecloth infested with 50-100 newly hatched larvae is added before covering the cup with a lid. After 3 days at 26.7° C., observations of egg hatch are made as well as kill of newly hatched larvae, any inhibition of feeding, or interference of any sort with normal development.
as §1

`CC1(C)CN=C(NN=C(C=Cc2ccc(C(F)(F)F)cc2)C=Cc2ccc(C(F)(F)F)cc2)NC1`: in data set [1], the “Solubility in Soybean oil, In % of w/w” value is reported as 0.1 % of w/w and the “Solubility in Soybean oil, In g/g of oil” value was 0.001 g/g of oil.
With `CC(=O)N1CC(C)(C)CN=C1NN=C(C=Cc1ccc(C(F)(F)F)cc1)C=Cc1ccc(C(F)(F)F)cc1` [R1=CF3, R3=CH3, 1,5-bis(α,α,α-Trifluoro-p-tolyl)-1,4-pentadien-3-one, (1-acetyl-1,4,5,6-tetrahydro-5,5-dimethyl-2-pyrimidinyl)hydrazone], in data set [2], the mortality at 10 ppm was 0%, the mortality at 100 ppm was found to be 100%, the mortality at 1000 ppm turned out to be 100% and the pest or weed control at 1000 µg/mL is 100%. In data set [3], the mortality at 10 ppm was in the range of 41 to 60%, the mortality at 100 ppm was in the range of 86 to 95% and the mortality at 1000 ppm was 100%. Further, in data set [4], the mortality at 10 ppm worked out at 40%, the mortality at 100 ppm worked out at 100% and the mortality at 1000 ppm came to 100%. In data set [5], the mortality at 100 ppm fell in the range of 0 to 40% and the mortality at 300 ppm was in the range of 86 to 95%.
Take `CCCCC(=O)N1CC(C)(C)CN=C1NN=C(C=Cc1ccc(C(F)(F)F)cc1)C=Cc1ccc(C(F)(F)F)cc1` [R1=CF3, R3=n-C4 H9]: in data set [2], the mortality at 10 ppm was 0%, the mortality at 100 ppm was 100%, the mortality at 1000 ppm is 100% and the pest or weed control at 1000 µg/mL was determined as 100%. Moreover, in data set [3], the mortality at 100 ppm was 100% and the mortality at 1000 ppm was 100%. Further, in data set [4], the mortality at 100 ppm came to 40% and the mortality at 1000 ppm amounted to 100%. Also, the mortality at 300 ppm in data set [5] is 86 to 95%.
Turning to `CCCCCCCCC=CCCCCCCCC(=O)N1CC(C)(C)CN=C1NN=C(C=Cc1ccc(C(F)(F)F)cc1)C=Cc1ccc(C(F)(F)F)cc1` [R1=CF3, R3=n-C8 H17CHCH(CH2)7], in data set [2], the mortality at 10 ppm came out at 20%, the mortality at 100 ppm is 100%, the mortality at 1000 ppm came out at 100% and the pest or weed control at 1000 µg/mL amounted to 100%. In data set [3], the mortality at 10 ppm was 0%, the mortality at 100 ppm stood at 100% and the mortality at 1000 ppm was 100%. Also, in data set [4], the mortality at 10 ppm came to 0%, the mortality at 100 ppm amounted to 100% and the mortality at 1000 ppm was determined as 100%. Moreover, in data set [5], the mortality at 10 ppm was 0 to 40% and the mortality at 100 ppm is 100%.
For `CCCCCCCCCCCCCCCC(=O)N1CC(C)(C)CN=C1NN=C(C=Cc1ccc(C(F)(F)F)cc1)C=Cc1ccc(C(F)(F)F)cc1` [R1=CF3, R3=n-C15 H31], in data set [2], the mortality at 10 ppm worked out at 0%, the mortality at 100 ppm was 100%, the mortality at 1000 ppm worked out at 100% and the pest or weed control at 1000 µg/mL was determined as 80%. Besides, in data set [3], the mortality at 10 ppm was determined as 0%, the mortality at 100 ppm was 60% and the mortality at 1000 ppm was found to be 100%. In data set [4], the mortality at 10 ppm came to 0%, the mortality at 100 ppm stood at 30% and the mortality at 1000 ppm was determined as 100%. Besides, in data set [5], the mortality at 100 ppm was in the range of 0 to 40% and the mortality at 300 ppm lay in the range of 86 to 95%.
On to `CC(=O)N1CC(C)(C)CN=C1NN=C(C=Cc1ccc(Cl)cc1)C=Cc1ccc(Cl)cc1` [R1=Cl, R3=CH3], for which the mortality at 100 ppm in data set [2], in data set [3], in data set [4] and in data set [5] was 100% in each case. The mortality at 1000 ppm in data set [2], in data set [3] and in data set [4] was 100% throughout. The mortality at 10 ppm was 0% in data set [3], 0% in data set [4] and 0 to 40% in data set [5].
As to `CC(=O)N1CC(C)(C)CN=C1NN=C(C=Cc1ccc(C(F)(F)F)cc1)C=Cc1ccc(C(F)(F)F)cc1` [drawing 31], in data set [1], the “Solubility in Soybean oil, In % of w/w” value was 0.3 % of w/w and the “Solubility in Soybean oil, In g/g of oil” value is listed as 0.003 g/g of oil.
For `CC1(C)CN=C(NN=C(C=Cc2ccc(C(F)(F)F)cc2)C=Cc2ccc(C(F)(F)F)cc2)N(C(=O)c2ccccc2)C1` [drawing 32] the same measures were 0.4 % of w/w and 0.004 g/g of oil.
Regarding `CCCCCCCCCCCCCCCC(=O)N1CC(C)(C)CN=C1NN=C(C=Cc1ccc(C(F)(F)F)cc1)C=Cc1ccc(C(F)(F)F)cc1` [drawing 33], in data set [1], the “Solubility in Soybean oil, In % of w/w” value is 2.0 % of w/w and the “Solubility in Soybean oil, In g/g of oil” value is 0.02 g/g of oil.
On to `CC1(C)CN=C(NN=C(C=Cc2ccc(C(F)(F)F)cc2)C=Cc2ccc(C(F)(F)F)cc2)N(C(=O)c2ccccc2)C1` [drawing 35], for which, in data set [2], the mortality at 10 ppm came out at 0%, the mortality at 100 ppm amounted to 100%, the mortality at 1000 ppm was 100% and the pest or weed control at 1000 µg/mL is 100%. Further, in data set [3], the mortality at 10 ppm is 0%, the mortality at 100 ppm turned out to be 100% and the mortality at 1000 ppm worked out at 100%. In data set [4], the mortality at 10 ppm came to 0%, the mortality at 100 ppm is 100% and the mortality at 1000 ppm stood at 100%. Besides, in data set [5], the mortality at 100 ppm fell in the range of 0 to 40%.
